The record followed here is patent US9486461B2, “Methods and compositions for inducing apoptosis by stimulating ER stress” (UNIVERSITY OF SOUTHERN CALIFORNIA, priority 2007, dated 2016).

The subject of experiment [1] is T98G glioblastoma cell line. The experiment is described as follows: MTT assay, T98G. It is filed as cell-based. The settings on record: Homo sapiens, 48 h, read-out: IC50 (50% inhibition of cell growth). As for the experimental part: (§1) For comparison purposes to the known anti-multiple myeloma effects of bortezomib, the RPMI/8226 multiple myeloma cell line was included in (A).
(§2) 3-(4,5-Dimethylthiazol-2-yl)-2,5-diphenyltetrazolium bromide (MTT) assays were performed in 96-well plates with the use of 3.0×10^3 to 8.0×10^3 cells per well as described in detail elsewhere (19).
(Tetrazolium dyes change colour on reduction, which living cells bring about.)

For experiment [2], the system named is CHOP protein in U87 glioblastoma tumor tissue. The experiment is described as follows: Immunohistochemical staining for CHOP in xenograft tumor tissue. The settings on record: for CHOP staining of tumor tissues: 30-180 mg/kg per day for 50 h, DMC and celecoxib already at lowest dosages. The experiment is classed as in vivo, nude mice. From the text: In all cases, representative sections are shown.
Immunohistochemical analysis of protein expression in tumor tissues was done with the use of the Vectastain avidin-biotin complex method kit (Vector Laboratories, Burlingame, Calif.) according to the manufacturer's instructions. This procedure uses biotinylated secondary antibodies and a preformed avidin: biotinylated enzyme complex that has been termed the avidin-biotin complex method technique. As the primary antibody, we used anti-CHOP antibody (Santa Cruz Biotechnology) diluted 1:100 in 2% normal goat blocking serum.

For experiment [3], the system named is CHOP, GRP78, caspase 4 in U251 glioblastoma cells. The experiment is described as follows: Western blot of ER stress indicators in U251 cells. The experiment is classed as cell-based, human. The settings on record: for CHOP expression, time kinetics: U251, 50 μmol/L, 4 h up to 24 h. As for the experimental part:
U251 glioblastoma cells were cultured in the presence of 1 μM thapsigargin (Tg) or 60 μM DMC for various times, as indicated. Total cell lysates were prepared and analyzed by Western blot with specific antibodies to the ER stress proteins GRP78, CHOP, and caspase 4 (Casp 4). Actin was used as a loading control.
Shown are (A) time kinetics at 50 μM of each drug, and (B) concentration dependence after 15 hours of incubation.
Shown are (FIG. 7A) time kinetics at 50 μM of each drug, and (FIG. 7B), concentration dependence after 15 hours of incubation.
U251 glioblastoma cells were cultured for 24 hours in the presence of increasing concentrations of (A) bortezomib (BZM) or (B) DMC. Total cell lysates were analyzed by Western blot with specific antibodies to ubiquitin, GRP78, CHOP, and caspase 4. Actin was used as a loading control.
(§3) Total cell lysates were prepared by lysis of cells with radioimmunoprecipitation assay buffer (28), and protein concentrations were determined using the bicinchoninic acid protein assay reagent (Pierce, Rockford, Ill.). For Western blot analysis, 50 Ag of each sample were processed as described (29). The primary antibodies were purchased from Cell Signaling Technologies (Beverly, Mass.), Cayman Chemical (Ann Arbor, Mich.), or Santa Cruz Biotechnology, Inc. (Santa Cruz, Calif.) and used according to the manufacturer's recommendations. The secondary antibodies were coupled to horseradish peroxidase and detected by chemiluminescence using the SuperSignal West substrate from Pierce. All immunoblots were repeated at least once to confirm the results.
Total cell lysates were prepared and analyzed by Western blot analysis as described earlier (19). Immunohistochemical analysis of protein expression in tumor tissues was performed with the use of the Vectastain avidin-biotin complex method kit (Vector Laboratories) as described previously (32). The primary antibodies were purchased from Cell Signaling Technology or Santa Cruz Biotechnology, Inc. and used according to the manufacturers' recommendations. All immunoblots and stainings were repeated at least once to confirm the results.
(In general: In western blotting, separated proteins are transferred to a membrane and probed.)

The subject of a further experiment is U251 glioblastoma cells. The experiment in a line: MTT assay, U251. It is filed as cell-based, human. The conditions noted are these: for IC50: Homo sapiens, U-251, U251, 48 h, MTT, read-out: IC50 (50% inhibition of cell growth). As for the experimental part:
U251 glioblastoma cells were treated with different drugs, and various parameters of cell growth and cell death were comparatively analyzed. As controls, cells remained either non-treated (Co) or were treated with the solvent DMSO alone. (FIG. 8A) Cells were treated with 30 or 50 μM DMC for 48 hours and the effects on cell growth/survival and on cell death were determined by various assays. […] Below the three panels, the expression levels of the ER stress indicators CHOP, GRP78, and caspase 4 at the end of the 48 hour drug treatment is shown, as determined by Western blot analysis with specific antibodies (actin served as a loading control. (FIG. 8B) Cells were treated with various concentrations of different drugs for 48 hours, as indicated, and cell death was measured with the cell death ELISA kit. (FIG. 8C) Cells were treated with DMC or various coxibs and traditional NSAIDs for 48 hours, as indicated, and cell growth and survival was determined with the conventional MTT assay (control, non-treated cells were set at 100%). MTT assays were performed in 96-well plates with the use of 3.0-8.0×10^3 cells per well as described in detail elsewhere (34). In parallel, the expression levels of CHOP and GRP78 protein were determined by Western blot analysis. […]
as §2

For experiment [4], the system named is cytoplasmic calcium levels in U251 cells. The experiment is described as follows: Cytoplasmic calcium imaging (Fura-2/AM). The experiment is classed as cell-based, human. The conditions noted are these: for elevation of cytoplasmic calcium levels: 100 μmol/L of each drug, Fura-2/AM loaded cells. The procedure: (A) U251 cells were treated with DMC or various coxibs and NSAIDs, and changes in intracellular calcium levels were recorded as described in Materials & Methods. […] Arrows indicate timepoint of drug addition. […] Essentially similar results were also obtained with the LN229 cell line.
The cells were loaded by incubating them with […] Fura-2/AM (Invitrogen) for 30 min at room temperature in external solution containing 138 mmol/L NaCl, 5.6 mmol/L KCl, 1.2 mmol/L MgCl2, 2.6 mmol/L CaCl2, 10 mmol/L HEPES, and 4 mmol/L glucose (pH 7.4). After loading, the cells were rinsed and transferred to the imaging setup. The cells were treated with individual drugs for 10 s, whereas fluorescence was elicited with the excitation wavelength alternating between 350 and 380 nm, using a Polychromator V (TILL Photonics GmbH, Grafelfing, Germany) to provide illumination via a Zeiss Axiovert 100 microscope with a Zeiss Fluar 40 oil objective (Carl Zeiss, Jena, Germany). Images were captured using a Cascade 512B CCD camera (Photometrics, Tucson, Ariz.) controlled with MetaFluor software (Molecular Devices, Sunnyvale, Calif.) at 0.5 Hz acquisition frequency. Ratios of the images obtained at 350 and 380 nm excitation were used to show changes in the cytoplasmic calcium concentration, according to the principles developed by Grynkiewicz et al. (31).

The next experiment concerns CHOP protein. The experiment in a line: Western blot of CHOP in various cancer cell lines. The experiment is classed as cell-based. The conditions noted are these: glioblastoma, breast carcinoma, pancreatic carcinoma, Burkitt's lymphoma, multiple myeloma cell lines; Cxb 40 and 60 μM, DMC 30 and 50 μM; 48 hours. The procedure: Total cellular lysates were prepared and analyzed by Western blot analysis with specific antibodies to CHOP. As a control for equal loading, all blots were also analyzed with antibodies to actin (only one of these control blots is shown at the bottom). The tumor type of each cell line is indicated on the right.
as §3

Experiment [5] has as its system LN229 glioblastoma cell line. The experiment in a line: MTT assay, LN229. It is filed as cell-based, human. The settings on record: LN229, 48 h. The procedure: as §1, §2

Some results are limits rather than exact numbers.

In the case of `Cc1ccc(-c2cc(C(F)(F)F)nn2-c2ccc(S(N)(=O)=O)cc2)cc1` [celecoxib, 4-[5-(4-methylphenyl)-3-(trifluoromethyl)-1H-pyrazol-1-yl]benzenesulfonamide], the concentration for half-maximal inhibition (IC50) (in experiment [1]; with U251 glioblastoma cells) was approximately 50 µM in each case. Further, the “CHOP staining of tumor tissues” value in experiment [2] (U87 xenograft) is given as “positive for CHOP”. In experiment [3], the “CHOP expression, time kinetics” value is listed as “noticeable lower compared with DMC”. For the same compound, the “detectable effect on cell growth and survival (MTT)” value in the experiment with U251 glioblastoma cells (U251, 48 hours, concentrations of up to 100 μmol/L) was “reduced the viability of the cell culture”. Besides, the “elevation of cytoplasmic calcium levels” value in experiment [4] is on record as “pronounced calcium spike”. In the experiment on CHOP protein, the “induction of CHOP protein” value is listed as “potently induce CHOP”. Also, the “sensitivity of LN229 compared with the other glioblastoma cell lines” value in experiment [5] is reported as “slightly less sensitive”.
As to `Cc1ccc(C)c(-c2cc(C(F)(F)F)nn2-c2ccc(S(N)(=O)=O)cc2)c1` [DMC, 4-[5-(2,5-dimethylphenyl)-3-(trifluoromethyl)-1H-pyrazol-1-yl]benzenesulfonamide], the IC50 (in experiment [1]; with U251 glioblastoma cells) was less than 40 µM in each case. For the same compound, the “CHOP expression in tumor tissue” value in experiment [2] (U87MG xenograft, 1 mg/kg BZM and 7.5 mg/kg DMC individually or in combination, 50 h) is listed as “did not cause much elevated CHOP expression”. Moreover, the “CHOP staining of tumor tissues” value in experiment [2] (U87 xenograft) is listed as “positive for CHOP”. Moreover, the “CHOP protein expression in tumor tissue” value in experiment [2] (U87 xenograft, animals fed drug for 50 h) is on record as “large increase in CHOP protein expression”. Also, in experiment [3], the “CHOP expression, time kinetics” value is “pronounced induction of CHOP”. The “increase in CHOP or GRP78 protein, concentration dependence” value in experiment [3] (U251, 15 hours, concentrations up to 75 or 100 μmol/L) is listed as “potently induced”. The “expression of GRP78 and CHOP” value in experiment [3] (U251, increasing concentrations, 24 hours) is “strong induction of GRP78 and CHOP”. Also, in experiment [3] (U251, 1 μM thapsigargin or 60 μM DMC), the “time at which activation (cleavage) of caspase-4 was first noted” value is recorded as approximately 24 h. The “CHOP and GRP78 expression levels” value in experiment [3] (U251, 1 μM thapsigargin or 60 μM DMC, prominent increase at 6 h and thereafter) is given as “substantially elevated”. In addition, the “cellular activity in MTT assays” value in the experiment on U251 glioblastoma cells (U251, 30 and 50 μmol/L, 48 hours) is “reduced cellular activity”. For the same compound, in experiment [4], the “elevation of cytoplasmic calcium levels” value is “pronounced calcium spike”. The “average maximum calcium peak compared with celecoxib” value in experiment [4] (100 μmol/L, difference not statistically significant) was “somewhat greater”. The “induction of CHOP protein” value in the experiment on CHOP protein is reported as “potently induce CHOP”. Besides, the “sensitivity of LN229 compared with the other glioblastoma cell lines” value in experiment [5] is on record as “slightly less sensitive”.

A word on the IC50: it is the midpoint of a concentration-inhibition curve.
